In US7220784B2, “Substituted stilbenes and their reactions” (priority 2000, dated 2007):
Where two headings read alike, the source gives them in different places. Each block holds one compound with its values, some of them ahead of it.

How the values were obtained:
[1] = system: P388 murine leukaemia cell line; assay: Cytotoxicity/growth inhibition assay (MTT), P388; format: cell-based
Method in brief: (§1)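 Growth inhibition of P388 murine and K562 human leukaemia cells measured by MTT assay.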

[2] = system: T1, tubulin; assay: Inhibition of tubulin assembly; format: biochemical; settings: concentration required to reduce assembly of tubulin by 50%
T1 construct: other: concentration required to reduce assembly of tubulin by 50%
Method: (§2) The following assays (1–5) were carried out as described in our paper (Woods, et al, British Journal of Cancer, 71, 705–711 (1995)). In addition to the cell lines described in this paper, other established human cell lines (K562, HUVEC, H460, BE, H529, and HT29) were used in the cytotoxicity/growth inhibition assay. • (1) Inhibition of tubulin assembly. The figure quoted is the concentration required to reduce assembly of tubulin by 50%. Tubulin assembly is monitored by light scatter/absorption at 350 nm.

[3] = system: A2780; assay: Cytotoxicity/growth inhibition assay (MTT), A2780; format: cell-based
Method: as §2
(§3) (2) Competition for the colchicine binding site on tubulin. The figure quoted represents the % of ^3H-colchicine bound following co-incubation of test compound and ^3H-cochicine with isolated tubulin. Where ester pro-drugs were used the experiments were carried out in the presence and absence of porcine liver esterase. • (3) Cytotoxicity/growth inhibition assay. This was carried out by the MTT assay. • (4) Permeability (shape-change) assay in endothelial cells. This was carried out using a method based on that of Watts et al. (Anticancer Res., 17, 71–75, (1997)). This involved the diffusion of a fluorescently labelled dextran through a barrier of endothelial cells (HUVEC) grown to confluence on a porous membrane. The effect of agents to alter the shape of these cells results in an increase in the permeability of the cells to the dye. The figure represents the increase in permeability over control cultures when drug is added (30 minutes, 1 mM.). • (5) Experiments to study the anti-vascular effects of these agents were carried out as described previously by our group. (Zhao et al, European Journal of Nuclear Medicine, 26, 231–238 (1999)). The anti-vascular effects of the agents were monitored by either positron emission tomography (PET) or by histologogical examination following treatment of mice bearing T50:80 murine breast tumours, or H460 human lung tumours. • (6) Anti-tumour efficacy of agents was determined in xenografts of H460 human lung cancer. Animals (n=5) were trated either with 5 daily injections and tumour size measured with time following treatment. • (7) The pharmacokinetic profile of agents was determined in mice following injection with drug. Blood was taken at various times following treatment and analysed by HPLC with UV detection. The HPLC conditions were isocratic using a 5 micron C18 BDS column (150×4.6) ad eluting with 75% MeOH in water with a detection wavelength of 290 nm. […] (AND(P)H:quinone oxidoreductace, EC 1.6.99.2). DT-diaphorase is an enzyme over-expressed in a number of human tumours. […] This two-electron reducing enzyme can be used to selectively activate prodrugs within cancers which over-express the enzyme.

[4] = system: colchicine binding site on tubulin; assay: Competition for the colchicine binding site on tubulin
[5] = system: diaphorase null H596 cell line; assay: Cytotoxicity/growth inhibition assay (MTT), H596; format: cell-based; settings: for H596/H460: ratio of IC50, diaphorase null H596 over H460
Method: as §2
(2) Competition for the colchicine binding site on tubulin. The figure quoted represents the % of ^3H-colchicine bound following co-incubation of test compound and ^3H-cochicine with isolated tubulin. Where ester pro-drugs were used the experiments were carried out in the presence and absence of porcine liver esterase. • (3) Cytotoxicity/growth inhibition assay. This was carried out by the MTT assay. • (4) Permeability (shape-change) assay in endothelial cells. This was carried out using a method based on that of Watts et al. (Anticancer Res., 17, 71–75, (1997)). This involved the diffusion of a fluorescently labelled dextran through a barrier of endothelial cells (HUVEC) grown to confluence on a porous membrane. The effect of agents to alter the shape of these cells results in an increase in the permeability of the cells to the dye. The figure represents the increase in permeability over control cultures when drug is added (30 minutes, 1 mM.). • (5) Experiments to study the anti-vascular effects of these agents were carried out as described previously by our group. (Zhao et al, European Journal of Nuclear Medicine, 26, 231–238 (1999)). The anti-vascular effects of the agents were monitored by either positron emission tomography (PET) or by histologogical examination following treatment of mice bearing T50:80 murine breast tumours, or H460 human lung tumours. • (6) Anti-tumour efficacy of agents was determined in xenografts of H460 human lung cancer. Animals (n=5) were trated either with 5 daily injections and tumour size measured with time following treatment. • (7) The pharmacokinetic profile of agents was determined in mice following injection with drug. Blood was taken at various times following treatment and analysed by HPLC with UV detection. The HPLC conditions were isocratic using a 5 micron C18 BDS column (150×4.6) ad eluting with 75% MeOH in water with a detection wavelength of 290 nm. The retention time of 6.6 mins for 97–64H. • (8) Activation of quinone prodrugs by DT-diaphorase. (AND(P)H:quinone oxidoreductace, EC 1.6.99.2). DT-diaphorase is an enzyme over-expressed in a number of human tumours. We have recently shown this enzyme to be highly expressed in the endothelial cells of blood vessels. This two-electron reducing enzyme can be used to selectively activate prodrugs within cancers which over-express the enzyme. We have therefore synthesised quinone pro-drugs (97–96, 98–40, 98–23, 98–33, 98–24) which, upon reduction by the enzyme, produces an agent (a hydroquinone stilbene) which is cytotoxic.
A series of prodrugs capable of being activated by DT-diaphorase, an enzyme over-expressed in a wide range of human cancers and in endothelial cells of the vasculature were synthesised. The rationale for this is that these agents will be activated in situ by the tumours over-expressing the enzyme, thus giving rise to a high local concentration of active drug. This confers selectivity to this agent. These quinone prodrugs (97–96 and 98–23) were tested for their ability to act as substrates for DT-diaphorase. […] This agent may therefore have a role in the treatment of tumours that over-express DT-diaphorase. Similarly, these agents maybe selectively activated in the endothelial cells of the vasculature, thereby conferring a selective anti-vascular effect.

[6] = system: H460 human lung cell line; assay: Cytotoxicity/growth inhibition assay (MTT), H460; format: cell-based
Method: as §2, §3

[7] = system: HUVEC; assay: Growth inhibition studies using HUVEC; format: cell-based, human
Method: as §2, §3

[8] = system: cancer cell growth in vitro; assay: Inhibition of cancer cell growth in vitro (cell line not stated); format: cell-based; settings: read-out: IC50, ability to inhibit cancer cell growth in vitro
[9] = system: K562 human myelogeneous leukaemia cell line; assay: Cytotoxicity/growth inhibition assay (MTT), K562; format: cell-based; settings: Homo sapiens, K562; MTT; read-out: K562 IC50
Method in brief: as §1

[10] = biological target: DT-diaphorase (Homo sapiens, UniProt P15559); assay: Activation of quinone prodrugs by DT-diaphorase; format: biochemical; settings: comparable to RH1
DT-diaphorase, sequence (P15559 whole entry, species assumed, the tested form may be a part): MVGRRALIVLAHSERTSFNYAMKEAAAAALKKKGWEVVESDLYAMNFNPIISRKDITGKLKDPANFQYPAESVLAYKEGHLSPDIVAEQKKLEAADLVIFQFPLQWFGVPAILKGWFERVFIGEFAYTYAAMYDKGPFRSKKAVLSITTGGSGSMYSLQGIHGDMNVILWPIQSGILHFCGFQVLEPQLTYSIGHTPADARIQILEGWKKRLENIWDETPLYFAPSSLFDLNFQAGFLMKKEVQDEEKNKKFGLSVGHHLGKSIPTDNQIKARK
Method: (2) Competition for the colchicine binding site on tubulin. The figure quoted represents the % of ^3H-colchicine bound following co-incubation of test compound and ^3H-cochicine with isolated tubulin. Where ester pro-drugs were used the experiments were carried out in the presence and absence of porcine liver esterase. • (3) Cytotoxicity/growth inhibition assay. This was carried out by the MTT assay. • (4) Permeability (shape-change) assay in endothelial cells. This was carried out using a method based on that of Watts et al. (Anticancer Res., 17, 71–75, (1997)). This involved the diffusion of a fluorescently labelled dextran through a barrier of endothelial cells (HUVEC) grown to confluence on a porous membrane. […] The anti-vascular effects of the agents were monitored by either positron emission tomography (PET) or by histologogical examination following treatment of mice bearing T50:80 murine breast tumours, or H460 human lung tumours. • (6) Anti-tumour efficacy of agents was determined in xenografts of H460 human lung cancer. Animals (n=5) were trated either with 5 daily injections and tumour size measured with time following treatment. • (7) The pharmacokinetic profile of agents was determined in mice following injection with drug. Blood was taken at various times following treatment and analysed by HPLC with UV detection. […]

[11] = Homo sapiens, A2780, read-out: A2780 IC50

SMILES: COc1ccc(C=Cc2cc(OC)c(OC)c(OC)c2)cc1F [Compound 97-64L]
IC50 ([1]; MTT): 171 nM
IC50 [2]: > 100 µM
IC50 ([3]; read-out: A2780 IC50): 113 nM
Colchicine % Inhibition [4]: 43%

SMILES: COc1cc(/C=C/C2=CC(=O)C(C)=CC2=O)cc(OC)c1OC [Compound 98-33]
IC50 [1]: < 780 nM
IC50 ([3]; read-out: IC50 (nM) A2780): 950 nM
IC50 [5]: 1490 nM
H596/H460 [5]: 0.36
IC50 [6]: 4110 nM

melting point: 132 to 134 °C
SMILES: COC(=O)CCOc1cc([N+](=O)[O-])c(CCc2cc(/C=C\c3cc(OC)c(OC)c(OC)c3)ccc2OC)cc1OC

IC50 [2]: < 1.25 µM
Colchicine % Inhibition [4]: 1.4%
SMILES: COc1cc(C=Cc2ccc(C)c(O)c2)cc(OC)c1OC [Compound 98-21]
IC50 ([1]; Mus musculus, P388, MTT): 0.935 nM
IC50 [3, 11]: 0.66 nM
IC50 ([7]; Homo sapiens, HUVEC): 9.5 nM

SMILES: COc1ccc(C=Cc2cc(OC)c(OC)c(OC)c2)cc1OCc1ccccc1[N+](=O)[O-] [Compound 98-29]
IC50 ([1]; Mus musculus, P388, MTT): 450 nM
IC50 [2]: > 100 µM
IC50 [3, 11]: 380 nM
Colchicine % Inhibition [4]: 53%
IC50 ([7]; Homo sapiens, HUVEC): 430 nM

SMILES: c1ccc2c(c1)ccc1ccccc12 [phenanthrene]
IC50 [8]: 700 nM

SMILES: COc1ccc(/C=C(/C)c2cc(OC)c(OC)c(OC)c2)cc1O [Compound 19, Z-(3′-Hydroxy-4′-methoxyphenyl)-2-(3″,4″,5″-trimethoxyphenyl)propene]
IC50 [9]: 40 nM
IC50 [2]: 1.8 µM
melting point: 156 to 158 °C

SMILES: COc1cc(/C=C\C2=CC(=O)C(C)=CC2=O)cc(OC)c1OC [Compound 98-23]
IC50 [1]: 2180 nM
IC50 ([1]; MTT): 2180 nM
IC50 ([3]; read-out: A2780 IC50): 2150 nM
IC50 ([3]; read-out: IC50 (nM) A2780): 2150 nM
IC50 [5]: 2280 nM
H596/H460 [5]: 0.52
IC50 [6]: 4370 nM
ability to act as substrate for DT-diaphorase [10]: good substrates for the enzyme

IC50 [2]: > 100 µM
Colchicine % Inhibition [4]: 84.2%
SMILES: COc1ccc(/C=C\c2cc(OC)c(OC)c(OC)c2)cc1Oc1c(F)c(F)nc(F)c1F [Compound 97-13H]
IC50 ([1]; MTT): 32.6 nM
IC50 ([3]; read-out: A2780 IC50): 17.9 nM
IC50 [6]: 32 to 35 nM
IC50 [7]: 45 nM
